Patent US6469061B1, “Jasmonate pharmaceutical composition for treatment of cancer” (priority 2001, dated 2002)
Where “and” joins values, the source holds several entries; their conditions need not be identical. Equal entries are not always repeated.

Key:
[1] = system: Molt-4 cells; assay: Fluorescence microscopy (DAPI) of nuclear morphology in Molt-4 cells; assay type: cell-based, human
Method: To confirm this fact, Molt-4 cells were treated with JA (2 mM) and MJ (0.5 mM) for 14 hours, and analyzed by fluorescence microscopy in order to detect essential morphological characteristics of apoptosis such as condensation and fragmentation of chromatin.
Referring to FIG. 3, fluorescence microscopy pictures are shown depicting changes in cellular morphology within the nuclei of Molt-4 cells, after treatment with plant stress hormones JA or MJ. 5×10^5 cells/sample were harvested, then fixated by addition of a solution of phosphate-buffered saline (PBS) containing [3% paraformaldehyde and 0.1% Triton X-100], for one hour. Cells were stained for 10 minutes with DAPI (1 μg/ml). Nuclei were analyzed by fluorescence microscopy, (using a fluorescence microscope model. A×70 TRF, made by Olympus Optical, Japan) at a magnification of 1:400. Characteristic apoptotic nuclei are marked with arrows.

[2] = system: LNCaP androgen-responsive human prostate adenocarcinoma cell line; assay: CellTiter 96 Aqueous Non-Radioactive Cell Proliferation Assay (MTS cytotoxicity), LNCaP; assay type: cell-based; settings: LNCaP cells, 0.5-3 mM tested, 24 hours
Method: (§1) All cell lines were purchased from ATCC (Rockville, Md.). […] JA and MJ were dissolved in ethanol.

[3] = system: MCF7 human breast carcinoma cell line; assay: CellTiter 96 Aqueous Non-Radioactive Cell Proliferation Assay (MTS cytotoxicity), MCF7; assay type: cell-based; settings: MCF7 cells, 0.5-3 mM tested, 24 hours
Method: as §1

[4] = system: Molt-4 cells; assay: Trypan blue exclusion (cell death versus suppression of proliferation), Molt-4; assay type: cell-based, human
From the text: (§2) Since the same number of cells was aliquoted into each well initially, decreased optical density as measured in wells containing treated cells (above) reflects cellular death and/or decrease in the rate of proliferation. To distinguish between these two possibilities we employed an additional cytotoxicity assay which detects cell death by lack of trypan blue exclusion.

[5] = system: normal lymphocytes from peripheral blood of healthy donors; assay: CellTiter 96 cytotoxicity on normal lymphocytes stimulated by TPA/PHA; assay type: cell-based, human; settings: 1 mM or 3 mM, 24 hours
From the text: Normal lymphocytes were separated from peripheral blood, as follows: Mononuclear cells (MNC) from venous blood of healthy donors were collected by Ficoll-Hypaque (Phamacia Fine Chemicals, Uppsala, Sweden) density gradient centrifugation. The resultant mononuclear cell preparation was allowed to adhere to plastic dishes to remove contaminant macrophages. The non-adherent peripheral blood lymphocytes were selected for use.

[6] = system: LNCaP cells; assay: Trypan blue exclusion (cell death versus suppression of proliferation), LNCaP; assay type: cell-based, human
From the text: as §2

[7] = system: Molt-4 human T lymphoblastic leukemia cell line; assay: CellTiter 96 Aqueous Non-Radioactive Cell Proliferation Assay (MTS cytotoxicity), Molt-4; settings: Molt-4 cells, 24 hours
Method: All cell lines were purchased from ATCC (Rockville, Md.). All reagents were purchased from Sigma Chemicals (St. Louis, Mo.) unless otherwise stated. JA and MJ were dissolved in ethanol.
LNCaP, MCF7 and SK-28 cells (at 4×10^3/well) and Molt-4 cells (at 1.5×10^4/well) were seeded in 96-well plates and allowed to adhere overnight. Plant stress hormone at increasing concentrations was added as indicated below, and toxicity was measured after 24 hours using the CellTiter 96 Aqueous Non-Radioactive Cell Proliferation Assay (Promega, Madison, Wis.); an assay in which viable cells produce a colored product (for details on the protocol of this assay, see below). This assay is quantitative, as the amount of color produced is read using an ELISA reader.
Each cell line was incubated with each of these hormones at a concentration ranging from 0.5-3 mM for 24 hours, after which cytotoxicity was measured. The statistical significance of the results was determined (where appropriate) by two-tailed student's t-test, n=3.
This allowed for development of a color reaction in which dehydrogenases reduce the MTS in metabolically active cells. Since the cells were not washed before the addition of MTS, there were no potentially loosely adherent or non-adherent cells that could have been problematic. Soluble MTS formazan product was measured at a wavelength of 490 nm using a CERES 900 HDI ELISA reader (Bio-Tek Instruments, Inc, Highland Park, Vt.). Optical density is directly proportional to the number of living cells in culture. Cytotoxicity (%) was calculated in the following way: [(OD of control cells−OD of drug-treated cells)/OD of control cells]×100.
Normal lymphocytes and Molt-4 cells were seeded (at 1.5×10^4/well) in 96-well plates.
Jasmonates or salicylic acid were added at a concentration of 1 mM or 3 mM, and cells were incubated for 24 hours. Optical density representing viable cells was determined by the CellTiter 96 Aqueous Non-Radioactive Cell Proliferation Assay.

[8] = system: SK-28 human melanoma cells; assay: CellTiter 96 Aqueous Non-Radioactive Cell Proliferation Assay (MTS cytotoxicity), SK-28; assay type: cell-based; settings: SK28 cells, 0.5-3 mM tested, 24 hours
Method: as §1

[9] = system: MCF7 cells; assay: Trypan blue exclusion (cell death versus suppression of proliferation), MCF7; assay type: cell-based, human
From the text: as §2

[10] = system: SK28 cells; assay: Trypan blue exclusion (cell death versus suppression of proliferation), SK28; assay type: cell-based, human
From the text: as §2

[11] = system: Molt-4, SK-28, LNCaP and MCF7 cells; assay: CellTiter 96 cytotoxicity across the four transformed cell lines; assay type: cell-based, human; settings: 0.5-3 mM, 24 hours
Method: as §1
Results are presented as means ± standard deviation.

[12] = system: Caspase-3 activity in Molt-4 cells; assay: Caspase-3 (CPP32) protease assay in treated Molt-4 cells; assay type: cell-based, human; settings: for Caspase-3 activity: all concentrations and times (2, 4, 14 hours), P<0.05
Method: Elevated levels of Caspase-3 are a specific marker of the apoptosis process (Porter and Janicke, Cell Death Differ., 6, 99-104, 1999). In order to definitively determine that the cause of cell death was apoptosis, the level of Caspase-3 activity was measured in cells after treatment with JA and MJ. […] Briefly, 2×10^6 cells were lysed and resuspended in 100 μL of reaction buffer containing a fluorogenic Caspase-3 (CPP32) substrate Ac-DEVD-AMC. Reactions were incubated at 37° C. for 2 hours and samples were assayed at excitation wavelength of 360 nm and emission wavelength of 460 nm, in the FL600 Microplate Fluorescence Reader (Bio-Tek Instruments, Winooski, Vt., USA).

[13] = system: EL-4 lymphoma cells; assay: EL-4 lymphoma model in mice, survival; assay type: in vivo, mice (strain C57BL)
Method: Syngeneic lymphoma cells were injected into a test group and a control group of mice (strain C57BL). The injections were administered either sub-cutaneously, or intra-peritoneally. Methyl jasmonate was administered orally, by injection directly into the resultant tumor or into the peritoneum, and the effect on tumor progression and on the rate of survival, were analyzed.
400,000 EL-4 lymphoma cells were injected intra-peritoneally into 20 test mice, or 19 control mice, of the C57BL strain.
Preliminary experiments had shown that methyl jasmonate at a dosage of 236-472 mg/kg. body weight was appropriate for prevention of tumoral growth. Therefore, methyl jasmonate was dissolved in a lipid carrier (0.4% Lipofundin, manufactured by B. Brown, Melsunger, Germany) and administered orally at a dosage of 236 mg/kg body weight. Administration was daily, via the drinking water, beginning with the day of injection of the lymphoma cells.
19 control mice received the lipid carrier only (0.4% Lipofundin), with no methyl jasmonate dissolved within.
The survival time of each group of mice was measured (in days), and analyzed.
Each of these tests weighs numerically the importance of a death within one of the two groups of mice, on a given day, compared to the number of surviving mice in the whole.

Structure (SMILES)	Nuclear morphology (apoptotic changes) ([1]; 2 mM for 14 hours)	Concentrations at which cytotoxicity was significant, P<0.05 [2] [µM]	Concentrations at which cytotoxicity was significant, P<0.05 [3] [µM]	Kind of damage (cell death or inhibition of cell proliferation) [4]	Cytotoxicity in normal lymphocytes [5]	Kind of damage (cell death or inhibition of cell proliferation) [6]	Cytotoxicity ([7]; 3 mM) [%]	Concentrations at which cytotoxicity was significant, P<0.05 ([7]; 0.5-3 mM tested)	Concentrations at which cytotoxicity was significant, P<0.05 [8] [µM]	Kind of damage (cell death or inhibition of cell proliferation) [9]	Kind of damage (cell death or inhibition of cell proliferation) [10]	Order of sensitivity of the cell lines [11]	Caspase-3 activity [12]	Level of Caspase-3 ([12]; incubation for 2 hours)	Nuclear morphology (apoptotic changes) ([1]; 0.5 mM for 14 hours)	Concentrations at which cytotoxicity was significant, P<0.01 [3] [µM]	Plateau of survival (cumulative percentage of survival) ([13]; C57BL mice, EL-4 cells i.p., 236 mg/kg orally daily via drinking water, reached on the 33rd day, control 20%, p=0.01492 Log-Rank, p=0.00953 Cox-Mantel) [%]	Dosage appropriate for prevention of tumoral growth ([13]; preliminary experiments in mice)	Cytotoxicity ([7]; 0.5 mM)	Concentrations at which cytotoxicity was significant, P<0.01 ([7]; 0.5-3 mM tested)
CC/C=C\C[C@H]1C(=O)CC[C@@H]1CC(=O)O [JA, Jasmonic acid]	induced condensation and fragmentation of chromatin	≥ 2000	3000	cell death	do not harm normal cells	inhibition of cell proliferation	90	≥ 1000 µM	≥ 2000	inhibition of cell proliferation	inhibition of cell proliferation	Molt-4>SK-28>LNCaP>MCF7	increased Caspase-3 activity significantly	didn't induce an elevation	–	–	–	–	–	–
CC/C=C\CC1C(=O)CCC1CC(=O)OC (stereo not shown) [MJ, methyl jasmonate]	–	≥ 2000	–	death	do not harm normal cells	death	–	–	≥ 2000	death	death	Molt-4>LNCaP>SK28>MCF7	increased Caspase-3 activity significantly	–	completely destroyed nuclear morphology in almost all cells	3000	50	236-472 mg/kg. body weight	87.52% and 90%	all concentrations
O=C([O-])c1ccccc1O.[Na+] [SA, Sodium salicylate, reference compound]	–	–	–	inhibition of cell proliferation	–	inhibition of cell proliferation	–	all concentrations	–	inhibition of cell proliferation	inhibition of cell proliferation	–	–	–	–	–	–	–	–	–
